Measured values reported in US9040524B2, “Antifungal 5,6-dihydro-4H-pyrrolo[1,2-a][1,4]-benzodiazepines and 6H-pyrrolo[1,2-a][1,4]benzodiazepines substituted with bicycle benzene derivatives” (JANSSEN PHARMACEUTICA NV, priority 2010, dated 2015).

How the values were obtained:
Format in all cases: cell-based
Microsporum canis = test: Antifungal activity in vitro, resazurin growth inhibition screen: Microsporum canis; settings: Microsporum canis B68128
Procedure: (§1) The standard susceptibility screen was performed in 96-well plates (U-bottom, Greiner Bio-One). Serial dilutions (2-fold or 4-fold) of 20 mM compound stock solutions were made in 100% DMSO, followed by an intermediate dilution step in water. These serial dilutions (10 μl) were then spotted onto test-plates that could be stored in the dark at 4° C. for a maximum period of 2 weeks. An adequate broad dose-range was included with 64 μM as the highest in-test concentration. […] The different fungal species/isolates (Table 3a) were cryopreserved and 1/1000 diluted in medium just prior to use. A standard inoculum of 200 μl containing 10^3 colony-forming unit (cfu) was then added to each well. A positive control (100% growth=fungal culture without antifungal) and a negative control (0% growth=RPMI-MOPS medium) were included on each plate.

Trichophyton rubrum = test: Antifungal activity in vitro, resazurin growth inhibition screen: Trichophyton rubrum; settings: Trichophyton rubrum B68183
Procedure: as §1

Sporothrix schenkii = test: Antifungal activity in vitro, resazurin growth inhibition screen: Sporothrix schenkii; settings: Sporothrix schenkii B62482
Procedure: as §1

Aspergillus fumigatus = test: Antifungal activity in vitro, resazurin growth inhibition screen: Aspergillus fumigatus; settings: Aspergillus fumigatus B42928
Procedure: as §1

Candida parapsilosis = test: Antifungal activity in vitro, resazurin growth inhibition screen: Candida parapsilosis; settings: Candida parapsilosis B66126
Procedure: as §1

Cryptococcus neoformans = test: Antifungal activity in vitro, resazurin growth inhibition screen: Cryptococcus neoformans; settings: Cryptococcus neoformans B66663
Procedure: as §1

[1] = system: Trichophyton mentagrophytes; test: Antifungal activity in vitro, resazurin growth inhibition screen: Trichophyton mentagrophytes; settings: Trichophyton mentagrophytes B70554
Procedure: as §1

SMILES	Inf. B pIC50 (Microsporum canis)	Inf. C pIC50 (Trichophyton rubrum)	Inf. A pIC50 (Sporothrix schenkii)	Inf. E pIC50 (Aspergillus fumigatus)	Inf. D pIC50 (Candida parapsilosis)	Inf. F pIC50 (Cryptococcus neoformans)	Inf. G pIC50 [1]
Br.c1ccc2c(c1)CNC(c1ccc3c(c1)OCO3)c1cccn1-2 (stereo not drawn) [Compound 2, 4-(1,3-benzodioxol-5-yl)-5,6-dihydro-4H-pyrrolo[1,2-a][1,4]benzodiazepine .HBr]	4.42	4.96	<4.19	<4.19	<4.19	<4.19	–
Clc1cccc2c1CNC(c1ccc3c(c1)OCO3)c1cccn1-2 (stereo not drawn) [Compound 3, 4-(1,3-benzodioxol-5-yl)-7-chloro-5,6-dihydro-4H-pyrrolo[1,2-a][1,4]benzo-diazepine]	4.91	4.47	<4.19	<4.19	<4.19	4.30	4.71
Br.Clc1cccc2c1CNC(c1ccc3c(c1)OCO3)c1cccn1-2 (stereo not drawn) [Compound 4, 4-(1,3-benzodioxol-5-yl)-7-chloro-5,6-dihydro-4H-pyrrolo[1,2-a][1,4]benzo-diazepine .HBr]	5.09	5.70	<4.19	<4.19	<4.19	4.38	–
Br.Clc1ccc2c(c1)CNC(c1ccc3c(c1)OCO3)c1cccn1-2 (stereo not drawn) [Compound 5, 4-(1,3-benzodioxol-5-yl)-8-chloro-5,6-dihydro-4H-pyrrolo[1,2-a][1,4]benzo-diazepine .HBr]	5.11	5.05	<4.19	<4.19	<4.19	4.42	–
Br.Clc1ccc2c(c1)-n1cccc1C(c1ccc3c(c1)OCO3)NC2 (stereo not drawn) [Compound 6, 4-(1,3-benzodioxol-5-yl)-9-chloro-5,6-dihydro-4H-pyrrolo[1,2-a][1,4]benzo-diazepine .HBr]	5.00	5.15	4.21	<4.19	<4.19	5.10	4.50
Br.Clc1cccc2c1-n1cccc1C(c1ccc3c(c1)OCO3)NC2 (stereo not drawn) [Compound 7, 4-(1,3-benzodioxol-5-yl)-10-chloro-5,6-dihydro-4H-pyrrolo[1,2-a][1,4]benzo-diazepine .HBr]	5.30	5.40	<4.19	<4.19	<4.19	4.64	4.47
Br.COc1cccc2c1CNC(c1ccc3c(c1)OCO3)c1cccn1-2 (stereo not drawn) [Compound 8, 4-(1,3-benzodioxol-5-yl)-5,6-dihydro-7-methoxy-4H-pyrrolo[1,2-a][1,4]benzo-diazepine .HBr]	4.66	5.22	<4.19	<4.19	<4.19	<4.19	<4.19
Clc1cccc2c1CN=C(c1ccc3c(c1)OCO3)c1cccn1-2 [Compound 10, 4-(1,3-benzodioxol-5-yl)-7-chloro-6H-pyrrolo[1,2-a][1,4]benzo-diazepine]	5.00	5.70	<4.19	<4.19	<4.19	4.48	5.30
Br.CCOc1cc2c(cc1C1NCc3c(Cl)cccc3-n3cccc31)CCC2 (stereo not drawn) [Compound 14, 7-chloro-4-(6-ethoxy-2,3-dihydro-1H-inden-5-yl)-5,6-dihydro-4H-pyrrolo[1,2-a]-[1,4]benzodiazepine .HBr]	5.10	5.52	<4.19	<4.19	<4.19	4.82	–
Br.COc1cc2c(cc1C1NCc3c(Cl)cccc3-n3cccc31)CCCC2 (stereo not drawn) [Compound 15, 7-chloro-5,6-dihydro-4-(5,6,7,8-tetrahydro-3-methoxy-2-naphthalenyl)-4H-pyrrolo-[1,2-a][1,4]benzodiazepine .HBr]	<4.19	5.40	<4.19	<4.19	<4.19	<4.19	<4.19
Cl.Clc1ccc(Cl)c2c1CNC(c1ccc3c(c1)CCC3)c1cccn1-2 (stereo not drawn) [Compound 16, 7,10-dichloro-4-(2,3-dihydro-1H-inden-5-yl)-5,6-dihydro-4H-pyrrolo[1,2-a][1,4]-benzodiazepine .HCl]	5.00	5.40	<4.19	<4.19	<4.19	<4.19	4.52
Cl.Clc1cc(Cl)c2c(c1)CNC(c1ccc3c(c1)CCC3)c1cccn1-2 (stereo not drawn) [Compound 17, 8,10-dichloro-4-(2,3-dihydro-1H-inden-5-yl)-5,6-dihydro-4H-pyrrolo[1,2-a][1,4]-benzodiazepine .HCl]	<4.19	5.70	<4.19	5.46	<4.19	<4.19	4.71
Cl.Clc1ccc2c(c1Cl)CNC(c1ccc3c(c1)CCC3)c1cccn1-2 (stereo not drawn) [Compound 18, 7,8-dichloro-4-(2,3-dihydro-1H-inden-5-yl)-5,6-dihydro-4H-pyrrolo[1,2-a][1,4]-benzodiazepine .HCl]	4.62	5.70	<4.19	4.67	<4.19	<4.19	5.26
Cl.Clc1cc(Cl)c2c(c1)-n1cccc1C(c1ccc3c(c1)CCC3)NC2 (stereo not drawn) [Compound 19, 7,9-dichloro-4-(2,3-dihydro-1H-inden-5-yl)-5,6-dihydro-4H-pyrrolo[1,2-a][1,4]-benzodiazepine .HCl]	5.40	6.00	<4.19	4.96	<4.19	5.70	5.63
Cl.Clc1cccc2c1CNC(c1ccc3c(c1)CCO3)c1cccn1-2 (stereo not drawn) [Compound 26, 7-chloro-4-(2,3-dihydro-5-benzofuranyl)-5,6-dihydro-4H-pyrrolo[1,2-a][1,4]benzo-diazepine .HCl]	6.00	6.25	<4.19	4.85	4.25	<4.19	5.70
Cl.Clc1cccc2c1CNC(c1ccc3c(c1)OCC3)c1cccn1-2 (stereo not drawn) [Compound 27, 7-chloro-4-(2,3-dihydro-6-benzofuranyl)-5,6-dihydro-4H-pyrrolo[1,2-a][1,4]benzo-diazepine .HCl]	5.15	6.32	<4.19	<4.19	<4.19	<4.19	4.96
Cl.Fc1cccc2c1CNC(c1ccc3c(c1)CCOC3)c1cccn1-2 (stereo not drawn) [Compound 29, 4-(3,4-dihydro-1H-2-benzopyran-6-yl)-7-fluoro-5,6-dihydro-4H-pyrrolo[1,2-a]-[1,4]benzodiazepine .HCl]	<4.19	4.44	<4.19	<4.19	<4.19	<4.19	<4.19
Cl.Clc1ccc2c(c1Cl)CNC(c1ccc3c(c1)CCO3)c1cccn1-2 (stereo not drawn) [Compound 30, 7,8-dichloro-4-(2,3-dihydro-5-benzofuranyl)-5,6-dihydro-4H-pyrrolo[1,2-a][1,4]-benzodiazepine .HCl]	6.00	5.22	<4.19	<4.19	<4.19	5.22	5.00
Cl.Clc1cc(Cl)c2c(c1)-n1cccc1C(c1ccc3c(c1)CCO3)NC2 (stereo not drawn) [Compound 31, 7,9-dichloro-4-(2,3-dihydro-5-benzofuranyl)-5,6-dihydro-4H-pyrrolo[1,2-a][1,4]-benzodiazepine .HCl]	5.52	6.00	<4.19	<4.19	<4.19	<4.19	5.80
Br.COc1cc2c(cc1C1NCc3c(Cl)cccc3-n3cccc31)OC(C)C2 (stereo not drawn) [Compound 49, 7-chloro-4-(2,3-dihydro-5-methoxy-2-methyl-6-benzofuranyl)-5,6-dihydro-4H-pyrrolo[1,2-a][1,4]benzodiazepine .HBr]	5.05	5.10	<4.19	<4.19	<4.19	4.34	–
